In the series the test system is RAW264.7 macrophagocytes.

Procedure: Besides, we contrastively explored cellular uptakes of BBI, PDP, sBBI and sBBI&PDP into a macrophage cell line RAW264.7 and HCC cell line Hepa1-6. The fluorescence was derived from fluorescein isothiocyanate (FITC), FITC was linked to the amino-terminal of sBBI, and the sBBI with FITC was then combined with PDP to form FITC-sBBI&PDP.
Hepa1-6 cells are seeded in 6-well plates at an appropriate density, approximately 200,000 cells per
well. After cell attachment, 1 mL of drug was labeled with 10 µL of FITC (100:1). Keep away from
light, and co-incubate the drug with the cells for 10 minutes. Digest cells according to normal
procedures. After centrifugation, wash 2-3 times with PBS and resuspend in 150-200 µL PBS for
FACS detection. FITC was incubated with drugs for 30 minutes. Plate with 6 cm confocal laser
dishes, 100,000 cells per well. After cell attachment, FITC-labeled drug was added. Drugs were co-
cultured with cells for 6 h. Cells were washed twice with PBS and cellular uptake observed under a
confocal laser fluorescence microscope.

Regarding CHEHEKFEQR-(PEG3)-nyskptdrqyhfrr [PDP], the Cellular uptake entry is recorded as “neither BBI nor PDP peptide showed cellular uptakes”.

As to “KFERQKILDSQEQLEHRERSLQT -(Hle)-RDIQRML-(2-Nal)-PC [BBI]”, the Cellular uptake result was “neither BBI nor PDP peptide showed cellular uptakes”.

The values are drawn from article PMC10283047, “Targeting β-catenin and PD-L1 simultaneously by a racemic supramolecular peptide for the potent immunotherapy of hepatocellular carcinoma” (Theranostics, 2023).
